Measurements: patent US20100016232A1, “Treatment Of Inflammatory Diseases With Mammal Beta Defensins” (Novozymes A/S, priority 2008, published 2010)
Marks after values point to notes of the source that are not given here. Where no end group is shown, it is not given here.

Key:
[1] = test system: TNF production in supernatants from immature dendritic cells; assay: TNF production, immature dendritic cells (MUTZ-3 derived); assay type: cell-based, human
Experimental: To generate a dendritoid cell line, the human myeloid leukaemia cell lines MUTZ-3 (1×10^5 cells/ml) was differentiated for 7 days in the presence of rhGM-CSF (150 ng/ml) and rhIL-4 (50 ng/ml) into immature DCs. Medium was exchanged every 2-3 days.
Cytokine production in supernatants was measured by flow cytometry with a human inflammation cytometric bead array (CBA) according to manufacturer's instructions (BD) on a FACSarray flow cytometer. The following cytokines were measured: IL-8, IL-1β, IL-10, TNF, IL-12 p70, IL-6. In some experiments, cytokines were measured by ELISA kits from R&D systems (IL-10, TNF-α, IL-1β) according to the manufacturer' instruction.

[2] = test system: IL-23, human CD14+ monocyte-derived dendritic cells; assay: IL-23 in supernatants of human CD14+ monocyte-derived dendritic cells, ELISA; assay type: cell-based
Experimental: The DCs were prepared according to a modified protocol originally described by Romani et al. Briefly, peripheral blood mononuclear cells (PBMCs) were purified from buffy coats of healthy donors by centrifugation over a Ficoll-pague (GE-healthcare) gradient. Monocytes were isolated from PBMC by positive selection of CD14+ cells by magnetic beads (Dynal, Invitrogen) according to the manufacturer's instructions. The CD14+ monocytes were cultured in 6-well plates in RPMI/2% Human AB Serum recombinant human recombinant granulocyte-macrophage colony-stimulating factor (GM-CSF, 20 ng/ml) and IL-4 (20 ng/ml) (PeproTech) for 6 days, replenishing the medium/cytokines after 2 and 5 days.
Cell culture supernatants were collected and stored at −80° C. Amounts of IL-23 was measured by standard sandwich ELISA using commercially available antibodies and standards according to the manufacturer's protocols (eBioscience).

[3] = test system: DSS-induced colitis in the mouse; assay: 10-day DSS-induced colitis, Disease Activity Index (Example 6); assay type: in vivo; design: key: clinical Disease Activity Index (stool, bleeding, weight loss)
Experimental: Daily clinical assessment of DSS-treated animals was carried out, with the calculation of a validated clinical Disease Activity Index (DAI) ranging from 0 to 4 according to the following parameters: stool consistency, presence or absence of rectal bleeding and weight loss:
Example 6 was carried out essentially as described in Example 5. The differences are indicated below.
Animals were divided into 9 experimental groups.
The animals in group F received one dose i.v. and another dose s.c. (12 hours after the i.v. dose) of the corresponding test item for 10 consecutive days.
The animals in group G received one dose every two days of the corresponding test item for 10 consecutive days.
Methylprednisolone was given orally at a dose of 1 mg/kg (group H) and 10 mg/kg (group J) in a dosing volume of 5 ml/kg body weight, once daily for 10 consecutive days.

[4] = test system: IL-1β and IL-8 and IL-6, dendritic cells; assay: Cytokines from dendritic cells stimulated with a cytokine cocktail; assay type: cell-based, human; details: cytokine cocktail together with hBD2 vs cocktail alone, results not shown
From the text: Obviously no effect on TNF could be analyzed, due to stimulation with TNF-α (results not shown).

hBD2: human beta defensin 2, SEQ ID NO:2; produced recombinantly in E. coli (Example 1); hBD2 of Tables 16-18 was prepared by chemical synthesis (GIGDPVTCLKSGAICHPVFCPRRYKQIGTCGLPGTKCCKKP; ends and bridges not checked; cysteine pairing not given here; listed as Homo sapiens)
TNF ([1]; LPS 1.5 μg/ml, hBD2 1 μg/ml): 18.04 pg/mL
TNF ([1]; LPS 1.5 μg/ml, hBD2 10 μg/ml): 13.8 pg/mL
TNF ([1]; LPS 1.5 μg/ml, hBD2 100 μg/ml): 7.66 pg/mL
TNF ([1]; LTA 1.5 μg/ml, hBD2 1 μg/ml): 0.00 pg/mL
TNF ([1]; LTA 1.5 μg/ml, hBD2 10 μg/ml): 2.76 pg/mL
TNF ([1]; LTA 1.5 μg/ml, hBD2 100 μg/ml): 5.22 pg/mL
TNF ([1]; Medium, hBD2 1 μg/ml): 4.64 pg/mL
TNF ([1]; Medium, hBD2 10 μg/ml): 1.89 pg/mL
TNF ([1]; Medium, hBD2 100 μg/ml): 0.00 pg/mL
IL-23 ([2]; LPS (100 ng/ml) and IFN-γ (20 ng/ml), hBD2 1 μg/ml): 3833 pg/mL
IL-23 ([2]; LPS (100 ng/ml) and IFN-γ (20 ng/ml), hBD2 10 μg/ml): 3308 pg/mL
IL-23 ([2]; LPS (100 ng/ml) and IFN-γ (20 ng/ml), hBD2 30 μg/ml): 3042 pg/mL
IL-23 ([2]; LPS (100 ng/ml) and IFN-γ (20 ng/ml), hBD2 100 μg/ml): 2145 pg/mL
IL-23 ([2]; Unstimulated, hBD2 10 μg/ml): 451 pg/mL
DAI score, mean ([3]; Group B, 1 mg/kg i.v., Day 1): 0.00
DAI score, mean ([3]; Group B, 1 mg/kg i.v., Day 2): 0.10
DAI score, mean ([3]; Group B, 1 mg/kg i.v., Day 3): 0.20
DAI score, mean ([3]; Group B, 1 mg/kg i.v., Day 4): 0.40
DAI score, mean ([3]; Group B, 1 mg/kg i.v., Day 5): 0.30
DAI score, mean ([3]; Group B, 1 mg/kg i.v., Day 6): 2.30*
DAI score, mean ([3]; Group B, 1 mg/kg i.v., Day 7): 4.40*
DAI score, mean ([3]; Group B, 1 mg/kg i.v., Day 8): 6.89
DAI score, mean ([3]; Group B, 1 mg/kg i.v., Day 9): 5.00*
DAI score, mean ([3]; Group B, 1 mg/kg i.v., Day 10): 5.78*
DAI score, mean ([3]; Group C, 0.1 mg/kg i.v., Day 1): 0.00
DAI score, mean ([3]; Group C, 0.1 mg/kg i.v., Day 2): 0.44
DAI score, mean ([3]; Group C, 0.1 mg/kg i.v., Day 3): 0.89
DAI score, mean ([3]; Group C, 0.1 mg/kg i.v., Day 4): 0.56
DAI score, mean ([3]; Group C, 0.1 mg/kg i.v., Day 5): 0.78
DAI score, mean ([3]; Group C, 0.1 mg/kg i.v., Day 6): 1.56**
DAI score, mean ([3]; Group C, 0.1 mg/kg i.v., Day 7): 4.13*
DAI score, mean ([3]; Group C, 0.1 mg/kg i.v., Day 8): 5.43*
DAI score, mean ([3]; Group C, 0.1 mg/kg i.v., Day 9): 6.29*
DAI score, mean ([3]; Group C, 0.1 mg/kg i.v., Day 10): 6.86
DAI score, mean ([3]; Group D, 0.01 mg/kg i.v., Day 1): 0.00
DAI score, mean ([3]; Group D, 0.01 mg/kg i.v., Day 2): 0.00
DAI score, mean ([3]; Group D, 0.01 mg/kg i.v., Day 3): 0.30
DAI score, mean ([3]; Group D, 0.01 mg/kg i.v., Day 4): 0.40
DAI score, mean ([3]; Group D, 0.01 mg/kg i.v., Day 5): 1.60
DAI score, mean ([3]; Group D, 0.01 mg/kg i.v., Day 6): 2.70
DAI score, mean ([3]; Group D, 0.01 mg/kg i.v., Day 7): 6.50
DAI score, mean ([3]; Group D, 0.01 mg/kg i.v., Day 8): 6.20*
DAI score, mean ([3]; Group D, 0.01 mg/kg i.v., Day 9): 4.60***
DAI score, mean ([3]; Group D, 0.01 mg/kg i.v., Day 10): 5.20**
DAI score, mean ([3]; Group E, 0.001 mg/kg i.v., Day 1): 0.00
DAI score, mean ([3]; Group E, 0.001 mg/kg i.v., Day 2): 0.00
DAI score, mean ([3]; Group E, 0.001 mg/kg i.v., Day 3): 0.10
DAI score, mean ([3]; Group E, 0.001 mg/kg i.v., Day 4): 0.20
DAI score, mean ([3]; Group E, 0.001 mg/kg i.v., Day 5): 0.40
DAI score, mean ([3]; Group E, 0.001 mg/kg i.v., Day 6): 3.40
DAI score, mean ([3]; Group E, 0.001 mg/kg i.v., Day 7): 7.11
DAI score, mean ([3]; Group E, 0.001 mg/kg i.v., Day 8): 8.56
DAI score, mean ([3]; Group E, 0.001 mg/kg i.v., Day 9): 5.89**
DAI score, mean ([3]; Group E, 0.001 mg/kg i.v., Day 10): 6.67
DAI score, mean ([3]; Group F, 0.1 mg/kg twice daily i.v. + s.c., Day 1): 0.00
DAI score, mean ([3]; Group F, 0.1 mg/kg twice daily i.v. + s.c., Day 2): 0.30
DAI score, mean ([3]; Group F, 0.1 mg/kg twice daily i.v. + s.c., Day 3): 0.70
DAI score, mean ([3]; Group F, 0.1 mg/kg twice daily i.v. + s.c., Day 4): 0.70
DAI score, mean ([3]; Group F, 0.1 mg/kg twice daily i.v. + s.c., Day 5): 0.60
DAI score, mean ([3]; Group F, 0.1 mg/kg twice daily i.v. + s.c., Day 6): 0.70***
DAI score, mean ([3]; Group F, 0.1 mg/kg twice daily i.v. + s.c., Day 7): 3.50**
DAI score, mean ([3]; Group F, 0.1 mg/kg twice daily i.v. + s.c., Day 8): 4.00***
DAI score, mean ([3]; Group F, 0.1 mg/kg twice daily i.v. + s.c., Day 9): 2.90***
DAI score, mean ([3]; Group F, 0.1 mg/kg twice daily i.v. + s.c., Day 10): 4.50***
DAI score, mean ([3]; Group G, 0.1 mg/kg i.v. every 2. day, Day 1): 0.00
DAI score, mean ([3]; Group G, 0.1 mg/kg i.v. every 2. day, Day 2): 0.20
DAI score, mean ([3]; Group G, 0.1 mg/kg i.v. every 2. day, Day 3): 0.40
DAI score, mean ([3]; Group G, 0.1 mg/kg i.v. every 2. day, Day 4): 0.50
DAI score, mean ([3]; Group G, 0.1 mg/kg i.v. every 2. day, Day 5): 0.50
DAI score, mean ([3]; Group G, 0.1 mg/kg i.v. every 2. day, Day 6): 2.90
DAI score, mean ([3]; Group G, 0.1 mg/kg i.v. every 2. day, Day 7): 6.50
DAI score, mean ([3]; Group G, 0.1 mg/kg i.v. every 2. day, Day 8): 8.70
DAI score, mean ([3]; Group G, 0.1 mg/kg i.v. every 2. day, Day 9): 7.50
DAI score, mean ([3]; Group G, 0.1 mg/kg i.v. every 2. day, Day 10): 6.56
IL-1β and IL-8 and IL-6 [4]: downregulating effect
